What follows are compounds tested on CD4 cells, isolated from healthy donor PMBCs, infected with HIV VSV-G pseudotyped GFP-GAG reporter virus (assay: tissue or blood). Details: Homo sapiens, 72 h.
Format: cell-based

Compound | EC50
Cc1cc(/C=C/C#N)cc(C)c1Oc1nc(NC23CC(C#N)(C2)C3)nc2nc(C(C)(F)F)n(C)c12 [Compound 41, (E)-3-((6-(4-(2-cyanovinyl)-2,6-dimethylphenoxy)-8-(1,1-difluoroethyl)-7-methyl-7H-purin-2-yl)amino)bicyclo[1.1.1]pentane-1-carbonitrile] | 77.6 nM
Cc1cc(/C=C/C#N)cc(C)c1Oc1nc(NC23CC(C#N)(C2)C3)nc2nc[nH]c12 [Compound 44, (E)-3-((6-(4-(2-cyanovinyl)-2,6-dimethylphenoxy)-7H-purin-2-yl)amino)bicyclo[1.1.1]pentane-1-carbonitrile] | 109 nM
Cc1nc2nc(NC34CC(C#N)(C3)C4)nc(Oc3c(F)cc(/C=C/C#N)cc3F)c2[nH]1 [Compound 58, (E)-3-((6-(4-(2-cyanovinyl)-2,6-difluorophenoxy)-8-methyl-7H-purin-2-yl)amino)bicyclo[1.1.1]pentane-1-carbonitrile] | 430 nM
Cc1nc2nc(NC34CC(C#N)(C3)C4)nc(Oc3c(Cl)cc(/C=C/C#N)cc3Cl)c2[nH]1 [Compound 59, (E)-3-((6-(2,6-dichloro-4-(2-cyanovinyl)phenoxy)-8-methyl-7H-purin-2-yl)amino)bicyclo[1.1.1]pentane-1-carbonitrile] | 336 nM
Cc1cc(/C=C/C#N)cc(C)c1Oc1nc(NC23CC(C#N)(C2)C3)nc2ncsc12 [Compound 75, (E)-3-((7-(4-(2-cyanovinyl)-2,6-dimethylphenoxy)thiazolo[4,5-d]pyrimidin-5-yl)amino)bicyclo[1.1.1]pentane-1-carbonitrile] | 55 nM
Cc1cc(/C=C/C#N)cc(C)c1Oc1nc(NC23CC(C#N)(C2)C3(F)F)nc2[nH]nc(C)c12 [Compound 77, (E)-3-((4-(4-(2-cyanovinyl)-2,6-dimethylphenoxy)-3-methyl-1H-pyrazolo[3,4-d]pyrimidin-6-yl)amino)-2,2-difluorobicyclo[1.1.1]pentane-1-carbonitrile] | 28.2 nM
Cc1cc(/C=C/C#N)cc(C)c1Oc1nc(NC23CC(C#N)(C2)C3(F)F)nc2c1CCO2 [Compound 78, (E)-3-((4-(4-(2-cyanovinyl)-2,6-dimethylphenoxy)-5,6-dihydrofuro[2,3-d]pyrimidin-2-yl)amino)-2,2-difluorobicyclo[1.1.1]pentane-1-carbonitrile] | 12.1 nM
Cc1cc(/C=C/C#N)cc(Cl)c1Oc1nc(NC23CC(C#N)(C2)C3)nc2[nH]nc(C)c12 [Compound 85, (E)-3-((4-(2-chloro-4-(2-cyanovinyl)-6-methylphenoxy)-3-methyl-1H-pyrazolo[3,4-d]pyrimidin-6-yl)amino)bicyclo[1.1.1]pentane-1-carbonitrile] | 20.9 nM
CCn1cnc2nc(NC34CC(C#N)(C3)C4)nc(Oc3c(C)cc(/C=C/C#N)cc3C)c21 [Compound 114, (E)-3-((6-(4-(2-cyanovinyl)-2,6-dimethylphenoxy)-7-ethyl-7H-purin-2-yl)amino)bicyclo[1.1.1]pentane-1-carbonitrile] | 51.1 nM
Cc1cc(/C=C/C#N)cc(C)c1Oc1nc(NC23CC(C#N)(C2)C3)nc2c1CSC2 [Compound 116, (E)-3-((4-(4-(2-cyanovinyl)-2,6-dimethylphenoxy)-5,7-dihydrothieno[3,4-d]pyrimidin-2-yl)amino)bicyclo[1.1.1]pentane-1-carbonitrile] | 63.3 nM
Cc1cc(/C=C/C#N)cc(C)c1Oc1nc(NC23CC(C#N)(C2)C3)nc2c1COC2 [Compound 117] | 23.9 nM
Cc1cc(/C=C/C#N)cc(C)c1Oc1nc(NC23CC(C#N)(C2)C3)nc2c1CCO2 [Compound 118, (E)-3-((4-(4-(2-cyanovinyl)-2,6-dimethylphenoxy)-5,6-dihydrofuro[2,3-d]pyrimidin-2-yl)amino)bicyclo[1.1.1]pentane-1-carbonitrile] | 80.4 nM
COC(=O)N1Cc2nc(NC34CC(C#N)(C3)C4)nc(Oc3c(C)cc(/C=C/C#N)cc3C)c2C1 [Compound 151, (E)-methyl 2-((3-cyanobicyclo[1.1.1]pentan-1-yl)amino)-4-(4-(2-cyanovinyl)-2,6-dimethylphenoxy)-5H-pyrrolo[3,4-d]pyrimidine-6(7H)-carboxylate] | 76 nM

Source: patent publication US20250333424A1, “ANTIVIRAL COMPOUNDS” (Gilead Sciences, Inc., priority 2024, published 2025)
